Assay results as given in patent US11725011B2, “Bicyclic urea kinase inhibitors and uses thereof” (The Broad Institute, Inc., priority 2016, dated 2023).

Experiments:
Experiment in all cases: KINOMEscan
Format in all cases: binding
Details in all cases: 1 uM
[1] = target: ABL1 (H396P)-nonphosphorylated (Homo sapiens (Human), UniProt P00519, H396P)
[2] = target: ABL1 (T315I)-nonphosphorylated (Homo sapiens (Human), UniProt P00519, T315I)
[3] = target: ABL1 (T315I)-phosphorylated (Homo sapiens (Human), UniProt P00519, T315I)
ACVR1 = ACVR1 (Homo sapiens (Human), UniProt Q04771)
ACVR1B = ACVR1B (Homo sapiens (Human), UniProt P36896)
ASK1 = ASK1 (Homo sapiens (Human), UniProt Q99683)
ASK2 = ASK2 (Homo sapiens (Human), UniProt O95382)
CDC2L2 = CDC2L2 (Homo sapiens (Human), UniProt Q9UQ88)
CDKL5 = CDKL5 (Homo sapiens (Human), UniProt O76039)
CLK1 = CLK1 (Homo sapiens (Human), UniProt P49759)
CSNK2A2 = CSNK2A2 (Homo sapiens (Human), UniProt P19784)
DAPK1 = DAPK1 (Homo sapiens (Human), UniProt P53355)
DRAK2 = DRAK2 (Homo sapiens (Human), UniProt O94768)
EGFR (G719S) = EGFR (G719S) (Homo sapiens (Human), UniProt P00533, G719S)
EGFR (T790M) = EGFR (T790M) (Homo sapiens (Human), UniProt P00533, T790M)
EPHA4 = EPHA4 (Homo sapiens (Human), UniProt P54764)
EPHA7 = EPHA7 (Homo sapiens (Human), UniProt Q15375)
FGR = FGR (Homo sapiens (Human), UniProt P09769)
FLT3 (D835Y) = FLT3 (D835Y) (Homo sapiens (Human), UniProt P36888, D835Y)
HIPK2 = HIPK2 (Homo sapiens (Human), UniProt Q9H2X6)
HUNK = HUNK (Homo sapiens (Human), UniProt P57058)
IRAK1 = IRAK1 (Homo sapiens (Human), UniProt P51617)
IRAK4 = IRAK4 (Homo sapiens (Human), UniProt Q9NWZ3)
JNK2 = JNK2 (Homo sapiens (Human), UniProt P45984)
MARK4 = MARK4 (Homo sapiens (Human), UniProt Q96L34)
MEK2 = MEK2 (Homo sapiens (Human), UniProt P36507)
MYLK4 = MYLK4 (Homo sapiens (Human), UniProt Q86YV6)
MYO3A = MYO3A (Homo sapiens (Human), UniProt Q8NEV4)
NEK10 = NEK10 (Homo sapiens (Human), UniProt Q6ZWH5)
PIK3C2G = PIK3C2G (Homo sapiens (Human), UniProt O75747)
PIK3CA (C420R) = PIK3CA (C420R) (Homo sapiens (Human), UniProt P42336, C420R)
PIK3CD = PIK3CD (Homo sapiens (Human), UniProt O00329)
PIP5K1A = PIP5K1A (Homo sapiens (Human), UniProt Q99755)
PKN2 = PKN2 (Homo sapiens (Human), UniProt Q16513)
PRKD1 = PRKD1 (Homo sapiens (Human), UniProt Q15139)
PRKD3 = PRKD3 (Homo sapiens (Human), UniProt O94806)
SGK2 = SGK2 (Homo sapiens (Human), UniProt Q9HBY8)
TAOK1 = TAOK1 (Homo sapiens (Human), UniProt Q7L7X3)
TXK = TXK (Homo sapiens (Human), UniProt P42681)
VEGFR2 = VEGFR2 (Homo sapiens (Human), UniProt P35968)

Chain of PIK3C2G (O75747 whole entry): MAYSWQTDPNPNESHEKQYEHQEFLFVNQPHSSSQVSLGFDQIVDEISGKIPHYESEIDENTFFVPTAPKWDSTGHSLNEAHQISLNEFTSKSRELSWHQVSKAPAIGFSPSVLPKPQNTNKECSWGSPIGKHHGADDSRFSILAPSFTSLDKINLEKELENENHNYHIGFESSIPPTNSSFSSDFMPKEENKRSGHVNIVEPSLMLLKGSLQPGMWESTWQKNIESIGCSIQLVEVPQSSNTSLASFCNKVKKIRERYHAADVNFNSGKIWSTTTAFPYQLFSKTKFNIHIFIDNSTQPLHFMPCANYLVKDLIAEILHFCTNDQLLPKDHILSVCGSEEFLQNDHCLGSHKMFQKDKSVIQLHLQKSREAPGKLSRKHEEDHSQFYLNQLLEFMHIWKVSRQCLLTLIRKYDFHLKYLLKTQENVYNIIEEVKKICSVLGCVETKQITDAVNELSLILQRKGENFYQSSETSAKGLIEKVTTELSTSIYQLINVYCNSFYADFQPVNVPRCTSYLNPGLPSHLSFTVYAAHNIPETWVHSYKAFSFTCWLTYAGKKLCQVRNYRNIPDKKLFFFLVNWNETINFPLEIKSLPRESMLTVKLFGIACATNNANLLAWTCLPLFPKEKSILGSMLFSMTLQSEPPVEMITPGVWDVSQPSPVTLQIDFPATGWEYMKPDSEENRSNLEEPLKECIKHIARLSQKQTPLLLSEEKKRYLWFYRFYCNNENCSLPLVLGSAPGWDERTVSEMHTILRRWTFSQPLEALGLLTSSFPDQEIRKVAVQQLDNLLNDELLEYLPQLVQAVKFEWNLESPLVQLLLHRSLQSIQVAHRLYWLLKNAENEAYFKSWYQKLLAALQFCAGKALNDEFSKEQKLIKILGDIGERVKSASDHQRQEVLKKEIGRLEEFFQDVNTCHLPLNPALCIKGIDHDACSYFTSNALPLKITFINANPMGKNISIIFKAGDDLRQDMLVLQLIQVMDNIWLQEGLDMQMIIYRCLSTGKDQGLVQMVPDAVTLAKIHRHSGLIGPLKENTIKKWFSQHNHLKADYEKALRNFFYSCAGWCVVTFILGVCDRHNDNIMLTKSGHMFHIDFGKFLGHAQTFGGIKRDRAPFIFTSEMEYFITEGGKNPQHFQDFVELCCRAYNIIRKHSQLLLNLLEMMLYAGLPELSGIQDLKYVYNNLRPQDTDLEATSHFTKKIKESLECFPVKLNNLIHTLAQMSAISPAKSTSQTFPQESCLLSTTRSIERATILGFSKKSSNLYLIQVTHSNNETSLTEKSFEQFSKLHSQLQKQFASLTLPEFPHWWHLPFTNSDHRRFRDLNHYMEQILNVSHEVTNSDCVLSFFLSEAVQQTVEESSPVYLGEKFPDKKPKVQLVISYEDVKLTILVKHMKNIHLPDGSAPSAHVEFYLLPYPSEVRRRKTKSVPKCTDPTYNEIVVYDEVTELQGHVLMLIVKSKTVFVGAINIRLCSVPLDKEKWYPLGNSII
Chain of CDC2L2 (Q9UQ88 whole entry): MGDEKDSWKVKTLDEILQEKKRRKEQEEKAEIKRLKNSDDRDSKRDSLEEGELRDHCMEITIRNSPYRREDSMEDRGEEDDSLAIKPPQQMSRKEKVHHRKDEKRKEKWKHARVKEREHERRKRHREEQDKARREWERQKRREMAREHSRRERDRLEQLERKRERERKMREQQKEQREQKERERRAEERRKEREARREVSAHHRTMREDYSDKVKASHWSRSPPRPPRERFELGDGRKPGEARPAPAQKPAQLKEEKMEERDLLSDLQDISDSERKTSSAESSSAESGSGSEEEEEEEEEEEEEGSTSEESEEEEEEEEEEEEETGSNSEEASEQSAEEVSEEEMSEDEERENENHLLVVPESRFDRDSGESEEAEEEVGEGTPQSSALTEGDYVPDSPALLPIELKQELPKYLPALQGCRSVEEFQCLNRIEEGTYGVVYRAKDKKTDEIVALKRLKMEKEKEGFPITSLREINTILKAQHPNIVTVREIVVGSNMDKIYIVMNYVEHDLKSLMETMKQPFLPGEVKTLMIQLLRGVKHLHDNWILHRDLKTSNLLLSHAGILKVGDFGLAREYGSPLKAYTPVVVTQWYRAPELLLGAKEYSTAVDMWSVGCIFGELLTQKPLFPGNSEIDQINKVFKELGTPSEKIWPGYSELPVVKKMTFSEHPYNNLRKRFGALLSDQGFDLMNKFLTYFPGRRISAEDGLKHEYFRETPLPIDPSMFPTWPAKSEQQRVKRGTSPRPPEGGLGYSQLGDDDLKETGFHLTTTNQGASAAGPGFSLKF
Chain of ACVR1 (Q04771 21-509): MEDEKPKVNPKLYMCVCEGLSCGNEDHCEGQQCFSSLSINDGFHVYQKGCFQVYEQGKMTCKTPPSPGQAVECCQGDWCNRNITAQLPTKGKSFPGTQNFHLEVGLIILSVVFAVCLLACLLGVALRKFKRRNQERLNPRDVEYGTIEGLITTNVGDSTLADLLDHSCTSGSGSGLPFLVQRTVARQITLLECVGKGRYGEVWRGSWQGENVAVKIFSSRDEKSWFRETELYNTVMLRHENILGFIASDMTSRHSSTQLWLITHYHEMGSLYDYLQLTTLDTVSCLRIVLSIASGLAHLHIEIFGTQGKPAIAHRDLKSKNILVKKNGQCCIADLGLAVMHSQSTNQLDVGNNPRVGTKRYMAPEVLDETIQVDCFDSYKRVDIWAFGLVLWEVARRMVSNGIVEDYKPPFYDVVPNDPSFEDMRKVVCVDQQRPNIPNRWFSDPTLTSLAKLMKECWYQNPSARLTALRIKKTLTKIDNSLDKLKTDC
Chain of TXK (P42681 whole entry): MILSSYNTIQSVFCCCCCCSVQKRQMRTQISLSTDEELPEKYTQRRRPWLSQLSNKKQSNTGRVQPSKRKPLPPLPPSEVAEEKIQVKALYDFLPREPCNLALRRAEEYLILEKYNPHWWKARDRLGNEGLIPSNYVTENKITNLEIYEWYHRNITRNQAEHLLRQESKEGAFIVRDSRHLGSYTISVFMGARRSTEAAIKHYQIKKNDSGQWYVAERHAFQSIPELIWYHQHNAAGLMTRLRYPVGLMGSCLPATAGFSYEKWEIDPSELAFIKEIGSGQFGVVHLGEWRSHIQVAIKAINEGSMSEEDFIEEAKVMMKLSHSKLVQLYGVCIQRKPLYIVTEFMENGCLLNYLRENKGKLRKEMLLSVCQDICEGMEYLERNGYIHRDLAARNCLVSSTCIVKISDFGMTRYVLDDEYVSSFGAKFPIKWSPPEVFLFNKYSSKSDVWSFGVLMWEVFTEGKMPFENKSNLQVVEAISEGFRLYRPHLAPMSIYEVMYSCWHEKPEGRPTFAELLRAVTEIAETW
Chain of PRKD1 (Q15139 whole entry): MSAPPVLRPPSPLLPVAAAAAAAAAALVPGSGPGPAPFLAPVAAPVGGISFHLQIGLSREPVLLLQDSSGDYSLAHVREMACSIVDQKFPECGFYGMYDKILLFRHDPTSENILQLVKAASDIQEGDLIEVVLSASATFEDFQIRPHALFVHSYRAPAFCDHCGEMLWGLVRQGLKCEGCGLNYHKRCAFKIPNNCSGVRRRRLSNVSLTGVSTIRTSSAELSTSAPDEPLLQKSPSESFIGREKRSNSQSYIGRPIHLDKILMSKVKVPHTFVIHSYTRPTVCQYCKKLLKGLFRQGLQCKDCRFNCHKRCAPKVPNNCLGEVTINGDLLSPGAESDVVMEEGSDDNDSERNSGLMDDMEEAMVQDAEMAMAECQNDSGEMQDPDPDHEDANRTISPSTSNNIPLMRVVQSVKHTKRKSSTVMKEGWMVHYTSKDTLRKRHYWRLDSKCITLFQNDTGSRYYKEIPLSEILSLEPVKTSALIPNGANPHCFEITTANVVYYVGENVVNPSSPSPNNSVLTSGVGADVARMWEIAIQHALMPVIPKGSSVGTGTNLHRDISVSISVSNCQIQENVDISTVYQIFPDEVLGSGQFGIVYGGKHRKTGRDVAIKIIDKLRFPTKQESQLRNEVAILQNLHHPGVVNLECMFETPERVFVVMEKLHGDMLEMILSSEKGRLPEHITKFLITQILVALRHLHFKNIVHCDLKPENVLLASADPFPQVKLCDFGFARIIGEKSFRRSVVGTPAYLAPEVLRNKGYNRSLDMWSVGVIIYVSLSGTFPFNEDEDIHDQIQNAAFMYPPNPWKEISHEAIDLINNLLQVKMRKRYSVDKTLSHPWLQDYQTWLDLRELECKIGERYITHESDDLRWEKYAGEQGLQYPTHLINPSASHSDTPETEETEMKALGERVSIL
Chain of DRAK2 (O94768 whole entry): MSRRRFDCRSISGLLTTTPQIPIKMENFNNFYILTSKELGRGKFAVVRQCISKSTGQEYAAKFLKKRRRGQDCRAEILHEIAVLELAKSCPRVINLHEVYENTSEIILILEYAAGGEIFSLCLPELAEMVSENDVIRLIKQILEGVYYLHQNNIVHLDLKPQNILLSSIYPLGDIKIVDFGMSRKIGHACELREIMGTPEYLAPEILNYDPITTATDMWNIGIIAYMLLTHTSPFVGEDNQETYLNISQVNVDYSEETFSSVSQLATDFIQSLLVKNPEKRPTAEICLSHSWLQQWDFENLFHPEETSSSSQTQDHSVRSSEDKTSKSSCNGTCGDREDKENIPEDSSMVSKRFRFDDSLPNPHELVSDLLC
Chain of MYLK4 (Q86YV6 whole entry): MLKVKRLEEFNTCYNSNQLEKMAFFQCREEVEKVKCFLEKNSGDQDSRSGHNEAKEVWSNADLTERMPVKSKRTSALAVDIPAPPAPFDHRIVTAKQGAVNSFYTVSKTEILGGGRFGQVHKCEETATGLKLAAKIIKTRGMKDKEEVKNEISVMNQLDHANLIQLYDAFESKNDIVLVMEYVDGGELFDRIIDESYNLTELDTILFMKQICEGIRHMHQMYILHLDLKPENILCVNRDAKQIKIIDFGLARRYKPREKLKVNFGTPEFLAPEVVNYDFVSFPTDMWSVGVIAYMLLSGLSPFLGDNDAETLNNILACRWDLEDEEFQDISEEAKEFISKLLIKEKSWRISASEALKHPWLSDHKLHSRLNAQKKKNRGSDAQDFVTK

COc1ccc(N2C(=O)N(c3c(C)cccc3C)Cc3cnc(Nc4ccc(N5CCN(C)CC5)cc4)nc32)c(OC)c1 [HG-11-136-01]
KINOMEscan ABL1 (H396P)-nonphosphorylated [1]: 0 | KINOMEscan ABL1 (T315I)-nonphosphorylated [2]: 0 | KINOMEscan ABL1 (T315I)-phosphorylated [3]: 1.2 | KINOMEscan ACVR1 (ACVR1): 2.8 | KINOMEscan ACVR1B (ACVR1B): 9.6 | KINOMEscan ASK1 (ASK1): 100 | KINOMEscan ASK2 (ASK2): 46 | KINOMEscan CDC2L2 (CDC2L2): 83 | KINOMEscan CDKL5 (CDKL5): 98 | KINOMEscan CLK1 (CLK1): 19 | KINOMEscan CSNK2A2 (CSNK2A2): 0.05 | KINOMEscan DAPK1 (DAPK1): 63 | KINOMEscan DRAK2 (DRAK2): 100 | KINOMEscan EGFR (G719S) (EGFR (G719S)): 0.2 | KINOMEscan EGFR (T790M) (EGFR (T790M)): 0.7 | KINOMEscan EPHA4 (EPHA4): 0 | KINOMEscan EPHA7 (EPHA7): 72 | KINOMEscan FGR (FGR): 0 | KINOMEscan FLT3 (D835Y) (FLT3 (D835Y)): 14 | KINOMEscan HIPK2 (HIPK2): 0.95 | KINOMEscan HUNK (HUNK): 28 | KINOMEscan IRAK1 (IRAK1): 4.4 | KINOMEscan IRAK4 (IRAK4): 49 | KINOMEscan JNK2 (JNK2): 20 | KINOMEscan MARK4 (MARK4): 32 | KINOMEscan MEK2 (MEK2): 0.2 | KINOMEscan MYLK4 (MYLK4): 60 | KINOMEscan MYO3A (MYO3A): 40 | KINOMEscan NEK10 (NEK10): 9.6 | KINOMEscan PIK3C2G (PIK3C2G): 87 | KINOMEscan PIK3CA (C420R) (PIK3CA (C420R)): 69 | KINOMEscan PIK3CD (PIK3CD): 72 | KINOMEscan PIP5K1A (PIP5K1A): 14 | KINOMEscan PKN2 (PKN2): 94 | KINOMEscan PRKD1 (PRKD1): 3.6 | KINOMEscan PRKD3 (PRKD3): 5.4 | KINOMEscan SGK2 (SGK2): 76 | KINOMEscan TAOK1 (TAOK1): 1 | KINOMEscan TXK (TXK): 0.25 | KINOMEscan VEGFR2 (VEGFR2): 1.8
